# According to US10669242B2 (priority 2016, dated 2020):
# Target: T1, recombinant glucosyltransferase domain of C. difficile Toxin B/TcdB (Clostridioides difficile, UniProt P18177)
# T1 construct: 6-His (C); purchased R&D Systems 6246-GT
# Experiment: biochemical
# T1 sequence (P18177 1-543): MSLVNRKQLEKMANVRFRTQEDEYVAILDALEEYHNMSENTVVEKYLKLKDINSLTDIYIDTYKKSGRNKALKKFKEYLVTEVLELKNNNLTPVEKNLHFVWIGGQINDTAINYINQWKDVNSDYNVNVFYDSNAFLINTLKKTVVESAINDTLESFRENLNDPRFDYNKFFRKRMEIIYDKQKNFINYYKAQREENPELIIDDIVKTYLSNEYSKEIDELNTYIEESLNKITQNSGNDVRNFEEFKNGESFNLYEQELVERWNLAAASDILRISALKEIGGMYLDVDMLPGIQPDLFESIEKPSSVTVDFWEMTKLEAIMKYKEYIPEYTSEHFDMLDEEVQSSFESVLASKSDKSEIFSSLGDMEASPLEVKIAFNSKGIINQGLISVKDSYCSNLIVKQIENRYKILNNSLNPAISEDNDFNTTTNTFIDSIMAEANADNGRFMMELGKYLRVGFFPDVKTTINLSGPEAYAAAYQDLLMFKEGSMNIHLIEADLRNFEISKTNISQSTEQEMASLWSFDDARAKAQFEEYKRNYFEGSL
row,Structure (SMILES),IC50
1,"Cc1cnc(NC(=O)c2ccc(CN3C(=O)c4ccc(Cl)cc4NC(=O)[C@H]3Cc3ccccn3)cc2Cl)s1 [Example 4cc, (R)-2-chloro-4-((8-chloro-2,5-dioxo-3-(pyridin-2-ylmethyl)-2,3-dihydro-1H-benzo[e][1,4]diazepin-4(5H)-yl)methyl)-N-(5-methylthiazol-2-yl)benzamide]",< 100 nM
2,"O=C1Nc2cc(Cl)ccc2C(=O)N(Cc2ccc(C(=O)N3CCc4cccnc43)c(Cl)c2)[C@@H]1Cc1ccccn1 [Example 4cd, (R)-8-chloro-4-(3-chloro-4-(2,3-dihydro-1H-pyrrolo[2,3-b]pyridine-1-carbonyl)benzyl)-3-(pyridin-2-ylmethyl)-3,4-dihydro-1H-benzo[e][1,4]diazepine-2,5-dione]",< 100 nM
3,"COc1cnc(NC(=O)[C@H]2CC[C@H](CN3C(=O)c4ccc(Cl)cc4NC(=O)[C@H]3Cc3ccccn3)CC2)cn1 [Example 4ce, (1R,4r)-4-(((R)-8-chloro-2,5-dioxo-3-(pyridin-2-ylmethyl)-2,3-dihydro-1H-benzo[e][1,4]diazepin-4(5H)-yl)methyl)-N-(5-methoxypyrazin-2-yl)cyclohexanecarboxamide]",100 to 999 nM
4,"Cc1cnc(NC(=O)[C@H]2CC[C@H](CN3C(=O)c4ccc(Cl)cc4NC(=O)[C@H]3Cc3ccccn3)CC2)cn1 [Example 4cf, (1R,4r)-4-(((R)-8-chloro-2,5-dioxo-3-(pyridin-2-ylmethyl)-2,3-dihydro-1H-benzo[e][1,4]diazepin-4(5H)-yl)methyl)-N-(5-methylpyrazin-2-yl)cyclohexanecarboxamide]",< 100 nM
5,"O=C1Nc2cc(Cl)ccc2C(=O)N(C[C@H]2CC[C@H](C(=O)N3CCc4cccnc43)CC2)[C@@H]1Cc1ccccn1 [Example 4cg, (R)-8-chloro-4-(((1r,4R)-4-(2,3-dihydro-1H-pyrrolo[2,3-b]pyridine-1-carbonyl)cyclohexyl)methyl)-3-(pyridin-2-ylmethyl)-3,4-dihydro-1H-benzo[e][1,4]diazepine-2,5-dione]",< 100 nM
6,"O=C1Nc2cc(Cl)ccc2C(=O)N(C[C@H]2CC[C@H](C(=O)N3CCCc4cccnc43)CC2)[C@@H]1Cc1ccccn1 [Example 4ch, (R)-8-chloro-3-(pyridin-2-ylmethyl)-4-(((1r,4R)-4-(1,2,3,4-tetrahydro-1,8-naphthyridine-1-carbonyl)cyclohexyl)methyl)-3,4-dihydro-1H-benzo[e][1,4]diazepine-2,5-dione]",10000 to 35000 nM
7,"O=C(Nc1ccccn1)c1ccc(CN2C(=O)c3ccc(Cl)cc3NC(=O)[C@H]2Cc2ccccn2)cc1Cl [Example 4cj, (R)-2-chloro-4-((8-chloro-2,5-dioxo-3-(pyridin-2-ylmethyl)-2,3-dihydro-1H-benzo[e][1,4]diazepin-4(5H)-yl)methyl)-N-(pyridin-2-yl)benzamide]",< 100 nM
8,"COc1ccc(NC(=O)c2ccc(CN3C(=O)c4ccc(Cl)cc4NC(=O)[C@H]3Cc3ccccn3)cc2OC)nc1 [Example 4cn, (R)-4-((8-chloro-2,5-dioxo-3-(pyridin-2-ylmethyl)-2,3-dihydro-1H-benzo[e][1,4]diazepin-4(5H)-yl)methyl)-2-methoxy-N-(5-methoxypyridin-2-yl)benzamide]",< 100 nM
9,"Cc1ccc(C[C@@H]2C(=O)Nc3cc(Cl)ccc3C(=O)N2Cc2ccc(C(=O)Nc3ccccn3)cc2)cc1 [Example 4co, (R)-4-((8-chloro-3-(4-methylbenzyl)-2,5-dioxo-2,3-dihydro-1H-benzo[e][1,4]diazepin-4(5H)-yl)methyl)-N-(pyridin-2-yl)benzamide]",100 to 999 nM
10,"Cn1ccc(NC(=O)c2ccc(CN3C(=O)c4ccc(Cl)cc4NC(=O)[C@H]3Cc3cccnc3)cc2)n1 [Example 4d, (R)-4-((8-chloro-2,5-dioxo-3-(pyridin-3-ylmethyl)-2,3-dihydro-1H-benzo[e][1,4]diazepin-4(5H)-yl)methyl)-N-(1-methyl-1H-pyrazol-3-yl)benzamide]",100 to 999 nM
